For orientation: IC50 means the concentration that gives 50% inhibition. High values mean weaker potency, low ones greater potency. As usually defined, the inhibition is the share of the control response that was lost under treatment.

Molecules are shown by their SMILES. The source made the active and inactive calls. The rule behind the calls is not given here.

These results are taken from ChEMBL document CHEMBL4411297, “Discovery, synthesis and anti-atherosclerotic activities of a novel selective sphingomyelin synthase 2 inhibitor” (Eur J Med Chem, 2019).

System in the first assay: not listed separately
In words: Inhibition of SMS (unknown origin). Also on record: species or system Homo sapiens.
With `S=C(S)O[C@@H]1C[C@H]2C[C@@H]1[C@H]1CCC[C@@H]21`, the IC50 was in the range of 177 to 600 µM.

The target of a further assay is T1, Phosphatidylcholine:ceramide cholinephosphotransferase 2 (Homo sapiens) (UniProt Q8NHU3).
T1 sequence (whole entry): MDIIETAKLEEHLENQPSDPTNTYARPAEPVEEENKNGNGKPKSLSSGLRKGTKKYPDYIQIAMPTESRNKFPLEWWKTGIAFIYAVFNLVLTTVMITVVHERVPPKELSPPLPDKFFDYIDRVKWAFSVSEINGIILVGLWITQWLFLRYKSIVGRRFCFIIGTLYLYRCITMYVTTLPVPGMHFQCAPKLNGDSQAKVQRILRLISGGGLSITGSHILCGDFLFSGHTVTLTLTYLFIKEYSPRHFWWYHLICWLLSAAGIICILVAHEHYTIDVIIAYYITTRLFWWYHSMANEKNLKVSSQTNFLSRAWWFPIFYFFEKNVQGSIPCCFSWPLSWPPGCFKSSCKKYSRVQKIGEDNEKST
Nature of the assay: Inhibition of SMS2 (unknown origin) over-expressed in H5 insect cell lysate at 100 uM using C6-NBD-Ceramide and DMPC as substrates preincubated for 30 mins followed by substrate addition and measured after 2 hrs by TLC or HPLC method relative to control. Type of assay: subcellular.
With `c1ccc(COc2ccccc2CNc2ccccc2)cc1`, the inhibition entry is “inactive”. `N#CC(Nc1ccccc1)c1ccccc1OCc1ccccc1` (configuration not stated) came in with an inhibition of 75%. On to `NC(=O)C(Nc1ccccc1)c1ccccc1OCc1ccccc1` (configuration not stated), for which the inhibition stood at 39%. On the same count and under the same terms, for `c1ccc(COc2ccccc2C(Nc2ccccc2)c2nnn[nH]2)cc1` (configuration not stated) the value was “inactive”; for `O=C(Nc1ccccc1)c1ccccc1OCc1ccccc1`, 69%. Same read-out and setting: then `CC(C#N)(Nc1ccccc1)c1ccccc1OCc1ccccc1` (configuration not stated), with 58%.

Another assay addresses T2, Phosphatidylcholine:ceramide cholinephosphotransferase 2 (Homo sapiens, UniProt Q8NHU3).
T2 sequence (Q8NHU3 whole entry): T1 sequence (whole entry)
Nature of the assay: Inhibition of SMS2 (unknown origin) over-expressed in H5 insect cell lysate using C6-NBD-Ceramide and DMPC as substrates preincubated for 30 mins followed by substrate addition and measured after 2 hrs by TLC or HPLC method. Type of assay: subcellular.
`O=C(Nc1cccnc1)c1ccccc1OCc1ccccc1C(F)(F)F` yielded a half-maximal inhibitory concentration (IC50) of 2.1 µM. Same read-out and setting: then `Cc1cccc(C)c1COc1ccccc1C(=O)Nc1cccnc1`, with 0.89 µM; and `O=C(NC1CCCCC1)c1ccccc1OCc1ccccc1`, with 43.4 µM. Still for that read-out and setting: for `N#Cc1cccc(COc2ccccc2C(=O)Nc2cccnc2)c1` the value was 60.7 µM. Still for that read-out and setting: for `O=C(Nc1cccnc1)c1ccccc1OCc1cc(F)ccc1Cl` the value was 0.74 µM; for `Cc1ccc(F)cc1COc1ccccc1C(=O)Nc1cccnc1`, 0.74 µM. Molecule `COc1ccc(Cl)cc1COc1ccccc1C(=O)Nc1cccnc1` displayed an IC50 of 0.67 µM. The IC50 values of the last two molecules are within 1.5-fold of each other. The same measure, in the same setting: then `O=C(Nc1cccnc1)c1ccccc1OCc1ccccc1OCCCCCCCl`, with 0.47 µM.

In turn, `Cc1c(Cl)cccc1COc1ccccc1C(=O)Nc1cccnc1` showed an IC50 of 3.8 µM. This IC50 is about 8.1-fold higher than that of the molecule before. Same read-out and setting: for `COc1ccc(OC)c(COc2ccccc2C(=O)Nc2cccnc2)c1` the value was 2.8 µM; for `O=C(Nc1cccnc1)c1ccccc1OCc1cc(Cl)ccc1Cl`, 0.99 µM; for `O=C(Nc1cccnc1)c1ccccc1OCc1c(Cl)cccc1Cl`, 0.69 µM. Consider `O=C(NCc1ccccc1)c1ccccc1OCc1ccccc1`, for which half-maximal inhibition (IC50) was put at 34.2 µM. This IC50 is about 50-fold higher than that of the molecule before. On the same count and under the same terms, then `CCCCCCOc1ccc(Cl)cc1COc1ccccc1C(=O)Nc1cccnc1`, with 0.52 µM; and `CCCCCCCOc1ccc(Cl)cc1COc1ccccc1C(=O)Nc1cccnc1`, with 0.43 µM. On the same count and under the same terms, for `O=C(NCc1ccco1)c1ccccc1OCc1ccccc1` the value was 49 µM; for `O=C(Nc1cccnc1)c1ccccc1OCc1ccccc1OCCCCCCl`, 0.67 µM.

`N#Cc1ccccc1COc1ccccc1C(=O)Nc1cccnc1` came in with an IC50 of 31.8 µM.

Molecule `Cc1ccc(Cl)cc1COc1ccccc1C(=O)Nc1cccnc1` showed an IC50 of 1.1 µM. Still for that read-out and setting: for `O=C(NC1CCCNC1)c1ccccc1OCc1ccccc1Cl` (configuration not stated) the value was greater than 100 µM. Consider `O=C(Nc1cccnc1)c1ccccc1OCc1ccccc1Cl`, for which the IC50 was 1.1 µM. Same read-out and setting: for `O=C(Nc1ccccc1)c1ccccc1OCc1ccccc1` the value was 13.4 µM; for `CC(C#N)(Nc1ccccc1)c1ccccc1OCc1ccccc1` (configuration not stated), 34 µM. As to `O=C(Nc1cccnc1)c1ccccc1OCc1ccccc1`, 3.2 µM corresponded to half-maximal inhibition (IC50). Same read-out and setting: for `O=C(Nc1cccnc1)c1ccccc1OCc1ccccc1OCCCCCl` the value was 1.3 µM.
